Measurements taken from patent publication US20220192996A1, “CORE-SHELL STRUCTURE, PREPARATION, MEDICINE FOR EXTERNAL APPLICATION, TAPE AGENT AND COSMETIC PRODUCT” (SEKISUI CHEMICAL CO., LTD., priority 2019, published 2022).
Counter-ions that a name gives are not always drawn.

Tests used:
dorsal skin of a rabbit = experiment: Primary irritation index of the active ingredient (4% by weight in Plastibase); format: in vivo; settings: 24 h enclosed application
Procedure: The phrase “low skin irritation” means skin irritation having a primary irritation index (P.I.I.) of 5 or less. The primary irritation index can be measured by the following method.
An active ingredient is added and mixed to an ointment base, Plastibase (manufactured by Taisho Pharmaceutical Co., Ltd.) so as to be 4% by weight based on the total weight, and dispersed to produce a preparation.
The dorsal skin of a rabbit is shaved with an electric clipper (with an electric shaver if necessary). On the dorsal healthy skin, two points in each of right and left sides of the dorsal midline, that is, four points in total are set to be an administration site. Next, the produced preparation is taken out with a spatula and spread evenly on a piece of lint having a size of 2 cm×2 cm, and the piece of lint is attached to the administration site. The piece of lint is fixed by covering with a non-woven adhesive bandage (manufactured by Nichiban Co., Ltd., MESHPORE, No. 50). Then, the administration sites are altogether wrapped with gauze and enclosed by covering with an adhesive cloth elastic bandage (manufactured by Nichiban Co., Ltd., ELASTOPORE, No. 100). The enclosure is released 24 hours after the start of administration, and the administered samples are removed.
The skin reaction is visually observed with the naked eye 24 hours after the administration (30 minutes after the release of the enclosure and the removal of the administered samples). […]
Specifically, for each administered sample at each time of observation, the individual score of the skin reaction at the administration site of each rabbit (the total of scores of erythema/eschar formation and edema formation) is calculated. Then, the primary irritation index (P.I.I.) is calculated from the individual scores at 24 hours and 72 hours after the administration (the score at 48 hours after the administration is not added). Specifically, the primary irritation index is calculated using Formulae (1) and (2) described below. […]

[1] = Octanol/water partition coefficient; format: physicochemical; settings: Log10, octanol / aqueous buffer pH 7
Procedure: In the present invention, the octanol/water partition coefficient is determined from the concentration of the active ingredient in each phase by adding the active ingredient to octanol and an aqueous buffer solution having a pH of 7 in a flask and then shaking the flask. Specifically, the octanol/water partition coefficient can be determined by calculating using the formula: octanol/water partition coefficient=Log10 (concentration in octanol phase/concentration in aqueous phase).

octanol/water partition coefficient [1] | logD ([1]; octanol / aqueous buffer solution) | SMILES | primary irritation index (P.I.I.) of the active ingredient (dorsal skin of a rabbit)
 |  | CC(C(=O)O)c1ccc(CC2CCCC2=O)cc1 (centres unmarked) [loxoprofen sodium dihydrate] | 0.3
 |  | CC12CC3CC(C)(C1)CC(N)(C3)C2 [memantine hydrochloride] | 2.5
 |  | CCN(C)C(=O)Oc1cccc([C@H](C)N(C)C)c1 [rivastigmine] | 0.5
0.0 | 0 | CCCc1nc(C)c2c(=O)[nH]c(-c3cc(S(=O)(=O)N4CCN(CC)CC4)ccc3OCC)nn12 [vardenafil hydrochloride hydrate] | 
